≈ marks a conversion by molar mass, not a printed value. Like-named read-outs stand apart in the source and are kept apart here.
Key:
[1] = system: polyclonal anti-TCPN antibody; assay: TCPN EIA, reactivity profile with polyclonal antibody; format: binding; conditions: for IC50: 10 min; for % Cross Reactivity: relative to TCPN
Procedure: (§1) The following immunoassay protocol was followed
(§2) 1. Microplates were prepared by binding screening conjugate Cl-O-AHT to the polystyrene surface.
(§3) 2. An appropriately diluted sample (200 μl) and the anti-TCPN antibody conjugated to horse radish peroxidase (50 μl) were added and incubated for 10 minutes.
(§4) 3. The wells were rinsed, and 200 μl of substrate, tetramethyl benzidine (TMB), was added to the wells.
(§5) 4. The plates were incubated for a further 10 minutes and 50 μl of stop solution (1.5% NaF) was added.
(§6) 5. The color reaction was read by measuring absorbance at 650 nm.
(§7) The cross reactivity of various TCPN derivatives and other benzene ring-based haptens were assessed using the above antibody preparations.

mAb 6F9 = assay: TCPN EIA, reactivity profile with monoclonal antibody; format: binding, mouse; conditions: for IC50: 10 min; for % Cross Reactivity: relative to TCPN
Procedure: as §1, §2, §3, §4, §5, §6, §7

Solubility = format: physicochemical
[2] = cited from earlier work
experimental animals = conditions: cited from earlier work
human skin = conditions: cited from earlier work
[3] = water or polar organic solvents

SMILES | IC50 [1] | % Cross Reactivity [1] [%] | IC50 (mAb 6F9) | % Cross Reactivity (mAb 6F9) [%] | other results
N#Cc1c(N)c(Cl)c(Cl)c(C#N)c1Cl [4-aminoTCPN, 4-amino-2,5,6-trichloroisophthalonitrile] | 43 ppb | 12 | 2.4 ppb | 92 | 
N#Cc1c(O)c(Cl)c(Cl)c(C#N)c1Cl [4-hydroxyTCPN, 4-hydroxy-2,5,6-trichloroisophthalonitrile] | 1010 ppb | 0.5 | 8.0 ppb | 28 | 
N#Cc1c(S)c(Cl)c(Cl)c(C#N)c1Cl [4-mercaptoTCPN, 4-mercapto-2,5,6-trichloroisophthalonitrile] | 10 ppb | 60 | 4.8 ppb | 46 | 
N#Cc1c(Cl)c(N)c(Cl)c(C#N)c1Cl [5-amino-TCPN, 5-amino-2,4,6-trichloroisophthalonitrile] | 43 ppb | 12 | 1.9 ppb | 116 | 
N#Cc1c(Cl)c(O)c(Cl)c(C#N)c1Cl [5-hydroxyTCPN, 5-hydroxy-2,4,6-trichloroisophthalonitrile] | 800 ppb | 0.6 | 7.0 ppb | 31 | 
CCc1cccc(CC)c1N(COC)C(=O)CCl [Alachlor] | > 10^4 ppb | < 0.01 | > 10^4 ppb | < 0.01 | 
CCNc1nc(Cl)nc(NC(C)C)n1 [Atrazine] | > 10^4 ppb | < 0.01 | > 10^4 ppb | < 0.01 | 
N#Cc1c(Cl)c(C#N)c(Cl)c(OC(=O)NCC(=O)O)c1Cl [BK-489-35] |  |  |  |  | solubility (Solubility; [3]): extremely low solubility
N#Cc1c(Cl)c(C#N)c(Cl)c(OC(=O)CC(=O)O)c1Cl [BK-489-36] |  |  |  |  | solubility (Solubility; dmf, organic solvent or mixture, read-out: solubility): 4500 µg/mL (≈ 13.5 mM)
N#Cc1c(Cl)c(C#N)c(Cl)c(NC(=O)NCC(=O)O)c1Cl [BK-489-41] |  |  |  |  | solubility (Solubility; [3]): high solubility
CCCCNC(=O)n1c(NC(=O)OC)nc2ccccc21 [Benomyl] | > 10^4 ppb | < 0.01 | > 10^4 ppb | < 0.01 | 
Clc1c(Cl)c(Cl)c(Cl)c(Cl)c1Cl [HCB, hexachlorobenzene] | > 10^4 ppb | < 0.01 | > 10^4 ppb | < 0.01 | 
COC(=O)Nc1nc2ccccc2[nH]1 [MBC, carbendazim] | > 10^4 ppb | < 0.01 | > 10^4 ppb | < 0.01 | 
CCc1cccc(C)c1N(C(=O)CCl)C(C)COC (stereo not drawn) [Metolachlor] | > 10^4 ppb | < 0.01 | > 10^4 ppb | < 0.01 | 
N#Cc1c(Cl)c(Cl)c(Cl)c(Cl)c1Cl [PCBN, pentachlorobenzonitrile] | 60 ppb | 8.3 | 30 ppb | 7.3 | 
N#Cc1c(Cl)c(Cl)c(Cl)c(C#N)c1Cl [TCPN, tetrachloroisophthalonitrile] | 5.0 ppb | 100 | 2.2 ppb | 100 | solubility in water [2]: practically insoluble in water; sensitizing properties (experimental animals): sensitizing properties; allergic reaction (human skin; exposed humans): stimulates an allergic reaction, leading to an IgE antibody response; contact dermatitis (human skin; production plant and field): associated with contact dermatitis; sensitizing properties (human skin; tested directly on human skin): sensitizing properties
CCCN(CCC)c1c([N+](=O)[O-])cc(C(F)(F)F)cc1[N+](=O)[O-] [Trifluralin] | > 10^4 ppb | < 0.01 | > 10^4 ppb | < 0.01 | 
NC(=O)c1c(Cl)c(Cl)cc(C(=O)O)c1Cl [acid/amide TCPN, 3-carbamyl-2,4,5-trichlorobenzoic acid] | > 10^4 ppb | < 0.01 | > 10^4 ppb | < 0.01 | 
N#Cc1c(Cl)c(Cl)c(Cl)c(C(N)=O)c1Cl [amide TCPN, 2,4,5,6-tetrachloro-3-cyanobenzamide] | 700 ppb | 0.7 | 800 ppb | 2.8 | 

Reference: patent US5654178A, “Immunoassay for tetrachloroisophthalonitrile (chlorothalonil), its derivatives and breakdown products” (ISK Biosciences Corporation, priority 1995, dated 1997)
